Laboratory results taken from patent US20260347380A1, “MODULATORS OF CD1 PROTEIN BINDING TO T CELL RECEPTORS” (The Brigham and Women's Hospital, Inc., priority 2022, published 2026).
“Also recorded” adds a separate entry of the source. Where two headings read alike, the source gives them in different places.

How the values were obtained:
CD1a-T cell receptor = settings: CD1a tetramer binding in vitro, J. Exp. Med. 2021, cited from earlier work
CD1a = CD1a (Homo sapiens, UniProt P06126); experiment: structure of CD1a-lipid complexes (FIG. 3, FIG. 4; co-crystallization); settings: for binding mode to CD1a and effect on approach of T cell receptors: sphingomyelins, FIG. 3
Text: Sulfatide sits similarly within CD1a as compared to other lipids, but the sulfatide headgroup alters the protein surface of CD1a and protrudes to the outer surface of CD1a where it can block T cell receptors.
Sulfatides (compounds S1-S10) have the same kinds of CD1a binding lipid tails as the synthetic sphingomyelins, but carry a differing headgroup comprised of sulfate and carbohydrate rather than phosphocholine. […] However, the head group of sulfatide has two proposed mechanisms for blocking TCR contact. […] However, the sulfatide moiety also disrupts a triad of residues on the outer surface of CD1a, which changes the intrinsic conformation of CD1a at the site at which the TCR can bind. These structural data predict that sulfatides could be particularly broad and efficacious blockers of T cell response.

[1] = molecular target: CD1a protein binding to RCS36 T cells (Homo sapiens, UniProt P06126); experiment: CD1a tetramer staining of human CD1a autoreactive T cells (block of CD1a protein binding to T cells), flow cytometry, FIG. 5; settings: in vitro, human CD1a tetramers
Procedure: Exemplified sphingomyelins block CD1a protein binding to RCS36 T cells. Fluorescent human CD1a tetramers were treated with media (mock) or a sphingomyelin variant synthesized with the indicated fatty chain and tested for staining of human CD1a autoreactive T cells using flow cytometry. In all cases the fatty acyl group is conjugated to a C18:1 sphingosine unit. Thus, the C28:1 fatty acyl group and the C18:1 sphingosine group constitute C46:2 sphingomyelin (compound 10).
Generally, naturally occurring cellular sphingomyelins within mammalian cells occur as mixtures, and they are most commonly C34-C36 but can range up to C42 in length.
The degree of inhibition for CD1a protein binding to T cells expressing receptors that normally bind to CD1a was tested for the exemplified compounds 1-10 (see FIG. 5). Increased chain length contributed to blockade in all cases, and the non-natural positioning of the second unsaturation in the fatty acyl unit affected blockade. More blockade was seen when the unsaturation was generated in positions more distal to the head group located at positions 15-17 (Δ15, Δ17). […] Accordingly, additional SM blockers include those with increased length of alkyl chains beyond C46, where the unsaturation is moved to more […] positions in the fatty acyl chain and the number of unsaturations in the fatty acid chain is increased. […]

plasma cytokines = experiment: plasma cytokine levels of imiquimod-treated mice, cytometric bead array (FIG. 10); format: in vivo, mouse
Procedure: (§1) Sphingomyelin species C34:1, C42:2 or C46:2 (20 μg/20 μl ethanol), or vehicle alone (20 μl ethanol) were applied topically to WT or CD1a transgenic mouse ear skin at 48 hour intervals before and during application of Aldara on days 0-5 (20 mg 5% imiquimod cream).
(§2) Plasma cytokine levels of the blood of imiquimod-treated wild-type (WT) and CD1a transgenic mice (CD1a) treated topically with 20 μg sphingomyelin (SM34:1, SM42:2 or SM46:2) dissolved in ethanol, or ethanol alone control, as in FIG. 6, as measured by cytometric bead array. (N=2-3, 1-way-ANOVA with Dunnett's test, *, P<0.05; **, P<0.01, mean±SD).

[2] = tested on: human CD1a transgenic mouse ear skin; experiment: imiquimod (Aldara)-induced psoriasiform skin inflammation in CD1a transgenic mice: ear swelling and skin images; format: in vivo; settings: for inflammatory lesions / visible skin inflammation: images day 7, topical 20 μg in ethanol
Procedure: as §1
Daily measurement of ear swelling induced by imiquimod treatment of wild-type (WT) and CD1a transgenic mice (CD1a) treated topically with 20 μg sphingomyelin (SM34:1, SM42:2 or SM46:2) dissolved in ethanol, or ethanol alone control, as in FIG. 6. (N=2-3, 2-way-ANOVA with Dunnett's test, *, P<0.05; ****, P<0.0001 indicates significance on comparison to “CD1a:EtOH” at day 7, mean±SD).
Representative images of imiquimod-treated wild-type (WT) and CD1a transgenic mouse ear skin (CD1a) treated topically with 20 μg sphingomyelin (SM34:1, SM42:2 or SM46:2) dissolved in ethanol, or ethanol alone control, as in FIG. 6, images taken on day 7. Steroid is mometasone cream.
CD1a is normally expressed on Langerhans cells in the epidermal layer of human skin. […] The lipids of this disclosure block CD1a binding to several T cell clones in vitro and also more broadly block the response of larger populations of polyclonal T cells that recognize CD1a in vivo, leading to decreased inflammation in the skin.
Synthetic long (C46:2 SMΔ17, compound 10), intermediate (C42:2Δ15 SM) and short chain (C34:1 SM) sphingomyelins were compared for inflammatory response. Unlike natural preparations that contain mixtures of short and long chain lipids, these experiments used pure synthetic lipids to titrate CD1a binding and inhibition of immune response. The functional requirements for the delivery vehicle are that it must: 1) dissolve amphipathic lipids, 2) be safe, immunologically unreactive, and non-toxic to skin and 3) create a lipid film that can subsequently penetrate to the epidermal layers, where CD1a is normally located in human skin and in the skin of CD1a transgenic mice. In this experiment, ethanol was chosen which is a chemically simple, safe and effective vehicle; however, other vehicles can also be used.
A widely used model of psoriasiform and dermatitic inflammation induced by Aldara cream, whose active ingredient is a toll-like receptor 7 agonist (imiquimod), was used in this example. Experiments were carried out in which lipid antagonists were applied to the skin of human CD1a transgenic mice in an ethanol carrier, which dried rapidly, leaving a lipid film on the skin. A significant reduction in ear swelling was observed, as a global measure of inflammation and psoriasiform and dermatitic disease when long chain sphingomyelins were applied before (data not shown) or simultaneously with Aldara treatment (FIGS. 7-11).

[3] = tested on: ears of hCD1a and WT mice; experiment: MC903-induced type 2 skin inflammation and itch in hCD1a mice (FIG. 11); format: in vivo, mouse
Procedure: FIG. 11 show the impact of sphingomyelin application on MC903 type 2 inflammation and clinical itch. The ears of hCD1a and WT mice were topically treated with 1 nmol MC903/EtOH on days 0, 2 and 5. 20 μg/20 μl of SM 46:2, SM 42:2, SM 34:1 and vehicle were applied on the ear tissue on days-2, 0, 2 and 4. (A) Ear thickness, and (B) itching frequency were evaluated at endpoint of day 6. Each data plot represents an individual ear. Plots show mean±SEM. Statistics were calculated using one-way ANOVA with Tukey post-test. […], **** P<0.001, NS=nonsignificant.
In order to investigate whether SM had efficacy in a different inflammatory skin model, we utilized the MC903-induced model of type 2 cytokine inflammation which has features of dermatitis in humans and prominently causes itch, a major treatable skin symptom. The MC903-induced type 2 inflammation is amplified in the presence of hCD1a (Hardman et al Nat Comms 2022). […] These mice normally express CD1d and then were engineered to express CD1a. […] As well as having potential therapeutic applications in diseases involving type 2 inflammation in humans, the data support utility in treating broader diseases where pruritus and itch are symptoms. CD1a has not been previously linked with pruritus and so this represents a new area of biology and opens new areas for therapeutic application.

[4] = tested on: Skin T cell and draining lymph node T cell; experiment: flow cytometry of ear skin and draining lymph node of imiquimod-treated mice (FIG. 9A); format: in vivo, mouse
Procedure: as §1
Flow cytometry analysis of ear skin of imiquimod-treated wild-type (WT) and CD1a transgenic mice (CD1a) treated topically with 20 μg sphingomyelin (SM34:1, SM42:2 or SM46:2) dissolved in ethanol, or ethanol alone control, as in FIG. 6. Skin T cell and draining lymph node T cell, frequency was determined. And lymph node CD4 and CD8 T cells assessed for cell surface CD69 expression, which is an indication of T cell activation. Skin and draining LN eosinophil and neutrophil frequency was determined. (N=2-3, 1-way-ANOVA with Dunnett's test, *, P<0.05; **, P<0.01; ***, P<0.001; ****, P<0.0001, mean±SD).

skin cytokines = experiment: skin cytokine levels of imiquimod-treated mice, cytometric bead array (FIG. 9B); format: in vivo, mouse; settings: day 7
Procedure: as §1
as §2, with “Skin” for “Plasma”, “were assessed on day 7” for “of the blood”, “P<0.01; ***, P<0.001; ****, P<0.0001,” for “P<0.01,”

[5] = MC903, hCD1a mice, day 6, 20 μg topical

Sequence of CD1a protein binding to RCS36 T cells (P06126 17-327): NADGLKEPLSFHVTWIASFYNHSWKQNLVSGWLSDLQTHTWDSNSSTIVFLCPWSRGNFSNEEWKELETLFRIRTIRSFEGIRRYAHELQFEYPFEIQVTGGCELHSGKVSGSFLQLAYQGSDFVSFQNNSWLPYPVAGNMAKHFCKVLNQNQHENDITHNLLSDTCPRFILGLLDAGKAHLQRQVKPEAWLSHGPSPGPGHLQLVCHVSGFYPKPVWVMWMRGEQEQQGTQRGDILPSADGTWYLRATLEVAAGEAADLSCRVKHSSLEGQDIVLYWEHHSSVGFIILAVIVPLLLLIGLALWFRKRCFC
Sequence of CD1a protein binding to RCS36 T cells (P61769 21-119 partner): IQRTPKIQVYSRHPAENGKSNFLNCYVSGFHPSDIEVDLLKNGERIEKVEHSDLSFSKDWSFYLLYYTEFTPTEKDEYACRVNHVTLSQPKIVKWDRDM
Sequence of CD1a (P06126 17-327): as the sequence (P06126 17-327) above
Sequence of CD1a (P61769 21-119 partner): as the sequence (P61769 21-119 partner) above

CCCCCCCC/C=C\CCCCCCCC(=O)N[C@@H](COP(=O)([O-])OCC[N+](C)(C)C)[C@H](O)/C=C/CCCCCCCCCCCCC [36:2 SM]
CD1a-T cell receptor binding (CD1a-T cell receptor): did not block binding | binding mode to CD1a and effect on approach of T cell receptors (CD1a): binds by tucking its phosphocholine group largely inside CD1a so T cell receptors can approach CD1a and are not blocked

CCCCCCCC/C=C\CCCCCCCCCCCCCC(=O)N[C@@H](COP(=O)([O-])OCC[N+](C)(C)C)[C@H](O)/C=C/CCCCCCCCCCCCC [42:2 SM]
CD1a-T cell receptor binding (CD1a-T cell receptor): blocked CD1a-T cell receptor binding | CD1a-T cell receptor binding (CD1a-T cell receptor; listed as C42:2 compound): blocked better than the singly unsaturated C42:1 compound | binding mode to CD1a and effect on approach of T cell receptors (CD1a): binds CD1a with its phosphocholine headgroup protruding, which blocks approach of T cell receptors

CCCCCCCCCC/C=C\CCCCCCCCCCCCCC(=O)N[C@@H](COP(=O)([O-])OCC[N+](C)(C)C)[C@H](O)/C=C/CCCCCCCCCCCCC [Compound 8, 44:2 SM d18:1/26:1 (15Z)]
inhibition of CD1a protein binding to T cells [1]: somewhat improved blocking of C44Δ15 SM as compared to C44Δ17 SM

CCCCCCCCCC/C=C\CCCCCCCCCCCCCCCC(=O)N[C@@H](COP(=O)([O-])OCC[N+](C)(C)C)[C@H](O)/C=C/CCCCCCCCCCCCC [Compound 10, 46:2 SM d18:1/28:1 (17Z)]
plasma IFNβ (plasma cytokines): significantly reduced | plasma IL17α (plasma cytokines): significantly reduced | plasma IL-4 (plasma cytokines): significantly reduced | ear swelling / ear thickening ([2]; imiquimod, CD1a transgenic mice, topical 20 μg in ethanol): reduced skin swelling; also recorded: most significantly inhibited | inflammatory lesions / visible skin inflammation ([2]; imiquimod): most significantly inhibited | inflammatory lesions / visible skin inflammation ([2]; imiquimod, listed as C46:2): significantly reduced skin inflammation | inflammatory lesions / visible skin inflammation ([2]; imiquimod, listed as C46:2 SM): Reduced inflammatory lesions | protection from disease ([2]; in vivo mouse model, ethanol application): protection from disease | ear thickness vs wild-type mice treated with MC903 ([3]; MC903, day 6, 20 μg topical): significantly reduced | pruritus vs wild-type mice treated with MC903 ([3]; MC903, day 6, 20 μg topical): significantly reduced | ear thickness vs vehicle control [3, 5]: significantly reduced | itching/pruritus scores vs vehicle control [3, 5]: significantly reduced | cellular inflammation ([4]; CD1a transgenic mice, topical in ethanol): reduced skin swelling and cellular inflammation in vivo | CD69 (surface marker of T cell activation) ([4]; lymph node CD4 and CD8 T cells): significant decreases | skin IFN-γ (skin cytokines): significant decreases | skin IL1α (skin cytokines): significant decreases | skin IL17α (skin cytokines): significant decreases | skin IL-1β (skin cytokines): significant decreases | skin IL-6 (skin cytokines): significant decreases | skin IL-17f (skin cytokines): significant decreases | skin IL-22 (skin cytokines): significant decreases | skin TNFα (skin cytokines): significant decreases | inhibition of CD1a protein binding to T cells [1]: strongest blockade; also recorded: strongly blocked CD1a binding to human T cell receptors in vitro

sulfatide
complex with CD1a (CD1a; sulfatide, co-crystallized, FIG. 4): CD1a was co-crystallized with sulfatide; also recorded: forms complex with CD1a
